According to the OligoGym collection:
Oligonucleotides are given in HELM: sugar(base)linkage, 5' to 3'; d 2'-deoxyribose, r ribose, m 2'-O-methylribose, p phosphate. ss, as = sense and antisense strand

biological target: TMEM63B; test: reporter assay of Huesken 2005; details: siRNA
Note: test concentration or dose not given here.

Substance	normalised inhibition (eCFP-eYFP dual reporter) [%]
RNA1{r(C)p.r(C)p.r(U)p.r(G)p.r(A)p.r(A)p.r(G)p.r(G)p.r(A)p.r(C)p.r(U)p.r(U)p.r(C)p.r(A)p.r(A)p.r(C)p.r(G)p.r(U)p.r(G)p.d(T)p.d(T)}|RNA2{r(C)p.r(A)p.r(C)p.r(G)p.r(U)p.r(U)p.r(G)p.r(A)p.r(A)p.r(G)p.r(U)p.r(C)p.r(C)p.r(U)p.r(U)p.r(C)p.r(A)p.r(G)p.r(G)p.d(A)p.d(T)}$$$RNA1{StrandType:ss}|RNA2{StrandType:as}$	84.5
RNA1{r(C)p.r(C)p.r(U)p.r(G)p.r(C)p.r(U)p.r(C)p.r(A)p.r(U)p.r(G)p.r(U)p.r(A)p.r(C)p.r(A)p.r(U)p.r(G)p.r(A)p.r(U)p.r(C)p.d(T)p.d(T)}|RNA2{r(G)p.r(A)p.r(U)p.r(C)p.r(A)p.r(U)p.r(G)p.r(U)p.r(A)p.r(C)p.r(A)p.r(U)p.r(G)p.r(A)p.r(G)p.r(C)p.r(A)p.r(G)p.r(G)p.d(C)p.d(C)}$$$RNA1{StrandType:ss}|RNA2{StrandType:as}$	73.1
RNA1{r(C)p.r(C)p.r(U)p.r(G)p.r(G)p.r(U)p.r(C)p.r(A)p.r(U)p.r(C)p.r(A)p.r(A)p.r(U)p.r(G)p.r(U)p.r(C)p.r(G)p.r(U)p.r(C)p.d(T)p.d(T)}|RNA2{r(G)p.r(A)p.r(C)p.r(G)p.r(A)p.r(C)p.r(A)p.r(U)p.r(U)p.r(G)p.r(A)p.r(U)p.r(G)p.r(A)p.r(C)p.r(C)p.r(A)p.r(G)p.r(G)p.d(C)p.d(A)}$$$RNA1{StrandType:ss}|RNA2{StrandType:as}$	60.4
RNA1{r(C)p.r(C)p.r(U)p.r(U)p.r(C)p.r(C)p.r(A)p.r(C)p.r(A)p.r(A)p.r(U)p.r(G)p.r(A)p.r(G)p.r(A)p.r(C)p.r(U)p.r(A)p.r(U)p.d(T)p.d(T)}|RNA2{r(A)p.r(U)p.r(A)p.r(G)p.r(U)p.r(C)p.r(U)p.r(C)p.r(A)p.r(U)p.r(U)p.r(G)p.r(U)p.r(G)p.r(G)p.r(A)p.r(A)p.r(G)p.r(G)p.d(T)p.d(G)}$$$RNA1{StrandType:ss}|RNA2{StrandType:as}$	72.3
RNA1{r(C)p.r(C)p.r(U)p.r(U)p.r(U)p.r(G)p.r(U)p.r(C)p.r(A)p.r(C)p.r(C)p.r(U)p.r(U)p.r(C)p.r(C)p.r(A)p.r(C)p.r(A)p.r(A)p.d(T)p.d(T)}|RNA2{r(U)p.r(U)p.r(G)p.r(U)p.r(G)p.r(G)p.r(A)p.r(A)p.r(G)p.r(G)p.r(U)p.r(G)p.r(A)p.r(C)p.r(A)p.r(A)p.r(A)p.r(G)p.r(G)p.d(C)p.d(C)}$$$RNA1{StrandType:ss}|RNA2{StrandType:as}$	74.2
RNA1{r(C)p.r(G)p.r(A)p.r(G)p.r(G)p.r(C)p.r(U)p.r(G)p.r(U)p.r(G)p.r(A)p.r(G)p.r(C)p.r(A)p.r(G)p.r(G)p.r(U)p.r(G)p.r(G)p.d(T)p.d(T)}|RNA2{r(C)p.r(C)p.r(A)p.r(C)p.r(C)p.r(U)p.r(G)p.r(C)p.r(U)p.r(C)p.r(A)p.r(C)p.r(A)p.r(G)p.r(C)p.r(C)p.r(U)p.r(C)p.r(G)p.d(C)p.d(A)}$$$RNA1{StrandType:ss}|RNA2{StrandType:as}$	42.2
RNA1{r(C)p.r(G)p.r(A)p.r(U)p.r(G)p.r(C)p.r(A)p.r(G)p.r(A)p.r(G)p.r(A)p.r(G)p.r(G)p.r(A)p.r(A)p.r(G)p.r(A)p.r(A)p.r(G)p.d(T)p.d(T)}|RNA2{r(C)p.r(U)p.r(U)p.r(C)p.r(U)p.r(U)p.r(C)p.r(C)p.r(U)p.r(C)p.r(U)p.r(C)p.r(U)p.r(G)p.r(C)p.r(A)p.r(U)p.r(C)p.r(G)p.d(A)p.d(G)}$$$RNA1{StrandType:ss}|RNA2{StrandType:as}$	56.4
RNA1{r(C)p.r(G)p.r(C)p.r(A)p.r(U)p.r(C)p.r(C)p.r(C)p.r(A)p.r(G)p.r(G)p.r(C)p.r(C)p.r(U)p.r(G)p.r(C)p.r(U)p.r(C)p.r(A)p.d(T)p.d(T)}|RNA2{r(U)p.r(G)p.r(A)p.r(G)p.r(C)p.r(A)p.r(G)p.r(G)p.r(C)p.r(C)p.r(U)p.r(G)p.r(G)p.r(G)p.r(A)p.r(U)p.r(G)p.r(C)p.r(G)p.d(C)p.d(A)}$$$RNA1{StrandType:ss}|RNA2{StrandType:as}$	74.9
RNA1{r(C)p.r(G)p.r(C)p.r(C)p.r(C)p.r(U)p.r(C)p.r(A)p.r(C)p.r(G)p.r(G)p.r(A)p.r(C)p.r(A)p.r(C)p.r(A)p.r(G)p.r(A)p.r(C)p.d(T)p.d(T)}|RNA2{r(G)p.r(U)p.r(C)p.r(U)p.r(G)p.r(U)p.r(G)p.r(U)p.r(C)p.r(C)p.r(G)p.r(U)p.r(G)p.r(A)p.r(G)p.r(G)p.r(G)p.r(C)p.r(G)p.d(T)p.d(C)}$$$RNA1{StrandType:ss}|RNA2{StrandType:as}$	59.1
RNA1{r(C)p.r(G)p.r(C)p.r(U)p.r(A)p.r(C)p.r(A)p.r(A)p.r(G)p.r(G)p.r(A)p.r(G)p.r(G)p.r(A)p.r(U)p.r(G)p.r(A)p.r(U)p.r(C)p.d(T)p.d(T)}|RNA2{r(G)p.r(A)p.r(U)p.r(C)p.r(A)p.r(U)p.r(C)p.r(C)p.r(U)p.r(C)p.r(C)p.r(U)p.r(U)p.r(G)p.r(U)p.r(A)p.r(G)p.r(C)p.r(G)p.d(C)p.d(A)}$$$RNA1{StrandType:ss}|RNA2{StrandType:as}$	79.3
RNA1{r(C)p.r(G)p.r(C)p.r(U)p.r(C)p.r(A)p.r(G)p.r(G)p.r(U)p.r(G)p.r(C)p.r(U)p.r(G)p.r(C)p.r(A)p.r(G)p.r(G)p.r(A)p.r(C)p.d(T)p.d(T)}|RNA2{r(G)p.r(U)p.r(C)p.r(C)p.r(U)p.r(G)p.r(C)p.r(A)p.r(G)p.r(C)p.r(A)p.r(C)p.r(C)p.r(U)p.r(G)p.r(A)p.r(G)p.r(C)p.r(G)p.d(A)p.d(T)}$$$RNA1{StrandType:ss}|RNA2{StrandType:as}$	46.2
RNA1{r(C)p.r(G)p.r(G)p.r(C)p.r(C)p.r(G)p.r(C)p.r(C)p.r(G)p.r(A)p.r(G)p.r(A)p.r(G)p.r(G)p.r(C)p.r(G)p.r(C)p.r(A)p.r(A)p.d(T)p.d(T)}|RNA2{r(U)p.r(U)p.r(G)p.r(C)p.r(G)p.r(C)p.r(C)p.r(U)p.r(C)p.r(U)p.r(C)p.r(G)p.r(G)p.r(C)p.r(G)p.r(G)p.r(C)p.r(C)p.r(G)p.d(A)p.d(G)}$$$RNA1{StrandType:ss}|RNA2{StrandType:as}$	72.9
RNA1{r(C)p.r(G)p.r(U)p.r(G)p.r(U)p.r(G)p.r(U)p.r(A)p.r(A)p.r(A)p.r(U)p.r(G)p.r(C)p.r(C)p.r(A)p.r(G)p.r(G)p.r(G)p.r(C)p.d(T)p.d(T)}|RNA2{r(G)p.r(C)p.r(C)p.r(C)p.r(U)p.r(G)p.r(G)p.r(C)p.r(A)p.r(U)p.r(U)p.r(U)p.r(A)p.r(C)p.r(A)p.r(C)p.r(A)p.r(C)p.r(G)p.d(T)p.d(T)}$$$RNA1{StrandType:ss}|RNA2{StrandType:as}$	52.1
RNA1{r(C)p.r(G)p.r(U)p.r(G)p.r(U)p.r(U)p.r(A)p.r(C)p.r(A)p.r(A)p.r(C)p.r(G)p.r(U)p.r(G)p.r(G)p.r(C)p.r(U)p.r(C)p.r(G)p.d(T)p.d(T)}|RNA2{r(C)p.r(G)p.r(A)p.r(G)p.r(C)p.r(C)p.r(A)p.r(C)p.r(G)p.r(U)p.r(U)p.r(G)p.r(U)p.r(A)p.r(A)p.r(C)p.r(A)p.r(C)p.r(G)p.d(G)p.d(G)}$$$RNA1{StrandType:ss}|RNA2{StrandType:as}$	91.6
RNA1{r(C)p.r(U)p.r(A)p.r(G)p.r(C)p.r(U)p.r(C)p.r(C)p.r(C)p.r(A)p.r(C)p.r(G)p.r(U)p.r(C)p.r(U)p.r(A)p.r(U)p.r(G)p.r(U)p.d(T)p.d(T)}|RNA2{r(A)p.r(C)p.r(A)p.r(U)p.r(A)p.r(G)p.r(A)p.r(C)p.r(G)p.r(U)p.r(G)p.r(G)p.r(G)p.r(A)p.r(G)p.r(C)p.r(U)p.r(A)p.r(G)p.d(G)p.d(A)}$$$RNA1{StrandType:ss}|RNA2{StrandType:as}$	66.7
RNA1{r(C)p.r(U)p.r(C)p.r(A)p.r(C)p.r(G)p.r(G)p.r(A)p.r(C)p.r(A)p.r(C)p.r(A)p.r(G)p.r(A)p.r(C)p.r(U)p.r(U)p.r(C)p.r(C)p.d(T)p.d(T)}|RNA2{r(G)p.r(G)p.r(A)p.r(A)p.r(G)p.r(U)p.r(C)p.r(U)p.r(G)p.r(U)p.r(G)p.r(U)p.r(C)p.r(C)p.r(G)p.r(U)p.r(G)p.r(A)p.r(G)p.d(G)p.d(G)}$$$RNA1{StrandType:ss}|RNA2{StrandType:as}$	61.7
RNA1{r(C)p.r(U)p.r(C)p.r(C)p.r(G)p.r(U)p.r(U)p.r(G)p.r(A)p.r(C)p.r(U)p.r(U)p.r(U)p.r(G)p.r(A)p.r(C)p.r(C)p.r(A)p.r(A)p.d(T)p.d(T)}|RNA2{r(U)p.r(U)p.r(G)p.r(G)p.r(U)p.r(C)p.r(A)p.r(A)p.r(A)p.r(G)p.r(U)p.r(C)p.r(A)p.r(A)p.r(C)p.r(G)p.r(G)p.r(A)p.r(G)p.d(C)p.d(T)}$$$RNA1{StrandType:ss}|RNA2{StrandType:as}$	98.6
RNA1{r(C)p.r(U)p.r(C)p.r(C)p.r(U)p.r(C)p.r(U)p.r(U)p.r(C)p.r(U)p.r(U)p.r(C)p.r(C)p.r(U)p.r(C)p.r(A)p.r(C)p.r(C)p.r(A)p.d(T)p.d(T)}|RNA2{r(U)p.r(G)p.r(G)p.r(U)p.r(G)p.r(A)p.r(G)p.r(G)p.r(A)p.r(A)p.r(G)p.r(A)p.r(A)p.r(G)p.r(A)p.r(G)p.r(G)p.r(A)p.r(G)p.d(G)p.d(A)}$$$RNA1{StrandType:ss}|RNA2{StrandType:as}$	68
RNA1{r(C)p.r(U)p.r(C)p.r(U)p.r(A)p.r(C)p.r(U)p.r(A)p.r(C)p.r(G)p.r(C)p.r(C)p.r(U)p.r(A)p.r(C)p.r(C)p.r(U)p.r(G)p.r(C)p.d(T)p.d(T)}|RNA2{r(G)p.r(C)p.r(A)p.r(G)p.r(G)p.r(U)p.r(A)p.r(G)p.r(G)p.r(C)p.r(G)p.r(U)p.r(A)p.r(G)p.r(U)p.r(A)p.r(G)p.r(A)p.r(G)p.d(A)p.d(T)}$$$RNA1{StrandType:ss}|RNA2{StrandType:as}$	56.4
RNA1{r(C)p.r(U)p.r(C)p.r(U)p.r(C)p.r(C)p.r(G)p.r(U)p.r(A)p.r(G)p.r(G)p.r(C)p.r(A)p.r(U)p.r(C)p.r(G)p.r(U)p.r(G)p.r(C)p.d(T)p.d(T)}|RNA2{r(G)p.r(C)p.r(A)p.r(C)p.r(G)p.r(A)p.r(U)p.r(G)p.r(C)p.r(C)p.r(U)p.r(A)p.r(C)p.r(G)p.r(G)p.r(A)p.r(G)p.r(A)p.r(G)p.d(G)p.d(A)}$$$RNA1{StrandType:ss}|RNA2{StrandType:as}$	75.8
